Results from patent US11426397B2, “Piperidinyl- and piperazinyl-substituted heteroaromatic carboxamides as modulators of GPR6” (TAKEDA PHARMACEUTICAL COMPANY LIMITED, priority 2017, dated 2022).

Target: T1, GPR6 receptor expressed in CHO-K1 cells (Homo sapiens, UniProt P46095)
T1 construct: expressed in transfected cells
Assay: In vitro inhibition of cAMP (EC50), cell-based HTRF cAMP assay
Details: inhibition of constitutive cAMP activity of GPR6 in CHO-K1 cells
Outline: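 Tetracycline-inducible CHO-K1 line, GPR6 expression induced 20 h with 2 μg/mL doxycycline. Compounds incubated 45 min at 37 °C in Ringer's buffer (pH 7.4) with 0.5% fatty acid free BSA and 300 μM IBMX. Constitutive cAMP read by Lance HTRF; EC50 from four-parameter logistic fit.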

T1 sequence (P46095 whole entry): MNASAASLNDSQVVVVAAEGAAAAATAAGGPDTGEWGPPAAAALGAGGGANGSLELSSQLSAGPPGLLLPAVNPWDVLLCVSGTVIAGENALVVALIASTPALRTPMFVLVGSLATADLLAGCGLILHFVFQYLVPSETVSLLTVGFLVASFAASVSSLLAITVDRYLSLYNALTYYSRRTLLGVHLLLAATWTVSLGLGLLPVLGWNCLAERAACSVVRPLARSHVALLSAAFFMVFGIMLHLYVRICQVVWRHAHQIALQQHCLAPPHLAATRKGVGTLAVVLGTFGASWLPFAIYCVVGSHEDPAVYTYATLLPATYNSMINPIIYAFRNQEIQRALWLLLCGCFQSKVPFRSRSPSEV

Row | SMILES | pEC50, in vitro inhibition of cAMP
1 | N#Cc1ccc(N2CCC(Oc3ccc(F)cc3F)CC2)c(NC(=O)c2csnn2)c1 [Example 116, N-(5-cyano-2-(4-(2,4-difluorophenoxy)piperidin-1-yl)phenyl)-1,2,3-thiadiazole-4-carboxamide] | 5.9
2 | Cn1cccc(C(=O)Nc2cnc(Cl)cc2N2CCC(Oc3ccc(F)cc3F)CC2)c1=O [Example 17, N-(6-chloro-4-(4-(2,4-difluorophenoxy)piperidin-1-yl)pyridin-3-yl)-1-methyl-2-oxo-1,2-dihydropyridine-3-carboxamide] | 7.2
3 | COc1nc(C)cc(C)c1C(=O)Nc1cc(C#N)ccc1N1CCC(Oc2ccc(F)cc2F)CC1 [Example 80, N-(5-cyano-2-(4-(2,4-difluorophenoxy)piperidin-1-yl)phenyl)-2-methoxy-4,6-dimethylnicotinamide] | 6.3
4 | COc1cncc(C(=O)Nc2cc(C#N)ccc2N2CCC(Oc3ccc(F)cc3F)CC2)n1 [Example 129, N-(5-cyano-2-(4-(2,4-difluorophenoxy)piperidin-1-yl)phenyl)-6-methoxypyrazine-2-carboxamide] | 7.2
5 | N#Cc1cnc(N2CCC(Oc3ccc(F)cc3F)CC2)c(NC(=O)c2ccccn2)c1 [Example 66, N-(5-cyano-2-(4-(2,4-difluorophenoxy)piperidin-1-yl)pyridin-3-yl)picolinamide] | 7.3
6 | N#Cc1cnc(N2CCC(Oc3ccc(F)cc3F)CC2)c(NC(=O)c2cc(Cl)ccn2)c1 [Example 55, 4-chloro-V-(5-cyano-2-(4-(2,4-difluorophenoxy)piperidin-1-yl)pyridin-3-yl)picolinamide] | 7.3
7 | CNC(=O)c1cc(N2CCC(Oc3ccc(F)cc3F)CC2)c(NC(=O)c2cccnc2OC)cn1 [Example 19, 4-(4-(2,4-difluorophenoxy)piperidin-1-yl)-5-(2-methoxynicotinamido)-N-methylpicolinamide] | 6.7
8 | COc1ncccc1C(=O)Nc1cc(S(C)(=O)=O)ccc1N1CCC(Oc2ccc(F)cc2F)CC1 [Example 5, N-(2-(4-(2,4-difluorophenoxy)piperidin-1-yl)-5-(methylsulfonyl)phenyl)-2-methoxynicotinamide] | 7.4
9 | COc1ccc(C(=O)Nc2cc(C#N)ccc2N2CCC(Oc3ccc(F)cc3F)CC2)nn1 [Example 136, N-(5-cyano-2-(4-(2,4-difluorophenoxy)piperidin-1-yl)phenyl)-6-methoxypyridazine-3-carboxamide] | 6.8
10 | Cn1cccc(C(=O)Nc2cc(S(C)(=O)=O)ccc2N2CCC(Oc3ccc(F)cc3F)CC2)c1=O [Example 3, N-(2-(4-(2,4-difluorophenoxy)piperidin-1-yl)-5-(methylsulfonyl)phenyl)-1-methyl-2-oxo-1,2-dihydropyridine-3-carboxamide] | 7.5
11 | CCn1ncc(C(=O)Nc2cc(C#N)cnc2N2CCC(Oc3ccc(F)cc3F)CC2)c1OC [Example 120, N-(5-cyano-2-(4-(2,4-difluorophenoxy)piperidin-1-yl)pyridin-3-yl)-1-ethyl-5-methoxy-1H-pyrazole-4-carboxamide] | 7.4
12 | COc1c(C(=O)Nc2ccc(C)nc2N2CCN(Cc3ccc(F)cc3)CC2)cnn1C [Example 103, N-(2-(4-(4-fluorobenzyl)piperazin-1-yl)-6-methylpyridin-3-yl)-5-methoxy-1-methyl-1H-pyrazole-4-carboxamide] | 6.5
13 | COc1cccnc1C(=O)Nc1cc(C#N)ccc1N1CCC(Oc2ccc(F)cc2F)CC1 [Example 26, N-(5-cyano-2-(4-(2,4-difluorophenoxy)piperidin-1-yl)phenyl)-3-methoxypicolinamide] | 6.4
14 | COc1ccncc1C(=O)Nc1ccc(C#N)cc1N1CCC(Oc2ccc(F)cc2F)CC1 [Example 92, N-(4-cyano-2-(4-(2,4-difluorophenoxy)piperidin-1-yl)phenyl)-4-methoxynicotinamide] | 7.3

Second part, the compound after the results:

Row | pEC50, in vitro inhibition of cAMP | SMILES
15 | 6.6 | Cn1cc(C(=O)Nc2cc(C#N)ccc2N2CCC(Oc3ccc(F)cc3F)CC2)nn1 [Example 145, N-(5-cyano-2-(4-(2,4-difluorophenoxy)piperidin-1-yl)phenyl)-1-methyl-1H-1,2,3-triazole-4-carboxamide]
16 | 6.8 | Cc1cc(C(=O)Nc2cc(C#N)ccc2N2CCC(Oc3ccc(F)cc3F)CC2)c(=O)n(C)c1C [Example 184, N-(5-cyano-2-(4-(2,4-difluorophenoxy)piperidin-1-yl)phenyl)-1,5,6-trimethyl-2-oxo-1,2-dihydropyridine-3-carboxamide]
17 | 7.2 | COc1ncccc1C(=O)Nc1cc(C#N)ncc1N1CCC(Oc2ccc(F)cc2F)CC1 [Example 261, N-(2-cyano-5-(4-(2,4-difluorophenoxy)piperidin-1-yl)pyridin-4-yl)-2-methoxynicotinamide]
18 | 6.3 | COc1ccc(OC(F)(F)F)cc1C(=O)Nc1cc(C#N)ccc1N1CCC(Oc2ccc(F)cc2F)CC1 [Example 231, N-(5-cyano-2-(4-(2,4-difluorophenoxy)piperidin-1-yl)phenyl)-2-methoxy-5-(trifluoromethoxy)benzamide]
19 | 6.9 | COc1ncccc1C(=O)Nc1cnc(C(F)(F)F)cc1N1CCC(Oc2ccc(F)cc2F)CC1 [Example 289]
20 | 6.6 | COc1nn(C)cc1C(=O)Nc1cc(C#N)cnc1N1CCN(Cc2c(F)cc(F)c(OC)c2F)CC1 [Example 171, N-(5-cyano-2-(4-(2,4,6-trifluoro-3-methoxybenzyl)piperazin-1-yl)pyridin-3-yl)-3-methoxy-1-methyl-1H-pyrazole-4-carboxamide]
21 | 6.4 | COc1cccc(CN2CCN(c3ncc(C#N)cc3NC(=O)c3cn(C)nc3OC)CC2)c1 [Example 156, N-(5-cyano-2-(4-(3-methoxybenzyl)piperazin-1-yl)pyridin-3-yl)-3-methoxy-1-methyl-1H-pyrazole-4-carboxamide]
22 | 6.3 | COc1ccc(F)c(F)c1C(=O)Nc1cc(C#N)ccc1N1CCC(Oc2ccc(F)cc2F)CC1 [Example 192, N-(5-cyano-2-(4-(2,4-difluorophenoxy)piperidin-1-yl)phenyl)-2,3-difluoro-6-methoxybenzamide]
23 | 6.5 | COc1ccc(F)cc1CN1CCN(c2ncc(C#N)cc2NC(=O)c2cn(C)nc2OC)CC1 [Example 161, N-(5-cyano-2-(4-(5-fluoro-2-methoxybenzyl)piperazin-1-yl)pyridin-3-yl)-3-methoxy-1-methyl-1H-pyrazole-4-carboxamide]
24 | 6.3 | COc1ncccc1C(=O)Nc1cc(C#N)ccc1N1CCN(Cc2ccc(F)cn2)CC1 [Example 244]
25 | 6.5 | Cc1cc(C)n(C)c(=O)c1C(=O)Nc1cc(C#N)ccc1N1CCC(Oc2ccc(F)cc2F)CC1 [Example 176, N-(5-cyano-2-(4-(2,4-difluorophenoxy)piperidin-1-yl)phenyl)-1,4,6-trimethyl-2-oxo-1,2-dihydropyridine-3-carboxamide]
26 | 7.2 | Cc1nccc(C(=O)Nc2cc(C#N)ccc2N2CCC(Oc3ccc(F)cc3F)CC2)n1 [Example 141, N-(5-cyano-2-(4-(2,4-difluorophenoxy)piperidin-1-yl)phenyl)-2-methylpyrimidine-4-carboxamide]
27 | 5.8 | COc1cccc(C)c1C(=O)Nc1cc(C#N)ccc1N1CCC(Oc2ccc(F)cc2F)CC1 [Example 227, N-(5-cyano-2-(4-(2,4-difluorophenoxy)piperidin-1-yl)phenyl)-2-methoxy-6-methylbenzamide]
28 | 6.9 | COc1ncccc1C(=O)Nc1cnc(C(N)=O)cc1N1CCC(Oc2ccc(F)cc2F)CC1 [Example 269, 4-(4-(2,4-difluorophenoxy)piperidin-1-yl)-5-(2-methoxynicotinamido)picolinamide]
29 | 6.8 | COc1nn(C)cc1C(=O)Nc1cc(C#N)ncc1N1CCN(Cc2ccc(F)c(F)c2F)CC1 [Example 266, N-(2-cyano-5-(4-(2,3,4-trifluorobenzyl)piperazin-1-yl)pyridin-4-yl)-3-methoxy-1-methyl-1H-pyrazole-4-carboxamide]
30 | 5.3 | O=C(Nc1ccccc1N1CCN(C(=O)c2ccc(Cl)cc2)CC1)c1ccncn1 [Example 259, N-(2-(4-(4-chlorobenzoyl)piperazin-1-yl)phenyl)pyrimidine-4-carboxamide]
31 | 6.5 | COc1nn(C)cc1C(=O)Nc1cc(C#N)cnc1N1CCN(Cc2ccccc2OC(F)(F)F)CC1 [Example 167, N-(5-cyano-2-(4-(2-(trifluoromethoxy)benzyl)piperazin-1-yl)pyridin-3-yl)-3-methoxy-1-methyl-1H-pyrazole-4-carboxamide]
32 | 7.0 | Cn1cccc(C(=O)Nc2ccccc2N2CCC(Oc3ccc(F)cc3F)CC2)c1=O [Example 257, N-(2-(4-(2,4-difluorophenoxy)piperidin-1-yl)phenyl)-1-methyl-2-oxo-1,2-dihydropyridine-3-carboxamide]
33 | 6.4 | COc1ccc(CN2CCN(c3ncc(C#N)cc3NC(=O)c3cn(C)nc3OC)CC2)cc1F [Example 168, N-(5-cyano-2-(4-(3-fluoro-4-methoxybenzyl)piperazin-1-yl)pyridin-3-yl)-3-methoxy-1-methyl-1H-pyrazole-4-carboxamide]
34 | 7.1 | COc1ncccc1C(=O)Nc1cc(C#N)ccc1N1CCN(Cc2ccc(F)c(F)c2)CC1 [Example 246, N-(5-cyano-2-(4-(3,4-difluorobenzyl)piperazin-1-yl)phenyl)-2-methoxynicotinamide]
35 | 6.5 | COc1cc(Cl)c(Cl)cc1C(=O)Nc1cc(C#N)ccc1N1CCC(Oc2ccc(F)cc2F)CC1 [Example 190, 4,5-dichloro-N-(5-cyano-2-(4-(2,4-difluorophenoxy)piperidin-1-yl)phenyl)-2-methoxybenzamide]
